Experimental findings from US6846803B1, “Antagonists specific for the corticotropin-releasing factor receptor type 2 (CRFR2)” (priority 1998, dated 2005) are described below.

Read-outs that look alike come from different tables or passages of the source. Marks after values point to notes of the source that are not given here.

As a reminder, the Kd is the concentration at which binding is half-saturated.

Test [1] deals with T1, mCRFR2β (Mus musculus, UniProt Q60748).
T1 construct: expressed in transfected cells; host or cells: HEK 293 cells, stably transfected (HEK-mCRFR2β); membrane homogenates
The experiment in a line: Displacement of [^125I-Tyr^0]Svg from membranes of HEK-mCRFR2β cells. It counts as binding. Particulars: for Selectivity: Kd(rCRFR1)(peptide)/Kd(rCRFR1)(astressin) × Kd(mCRFR2β)(astressin)/Kd(mCRFR2β)(peptide). On the procedure: Binding assays were performed in 96-well MultiScreen plates (Millipore, Eschborn, Germany) with GF/B filters (pore size 1.0 μm). […] After incubation (60 min, 23° C.), membrane suspension was aspirated through the plate, followed by two washes with assay buffer (0.2 ml, 23°). Radioactivity of the punched filters was measured with a 1470 WIZARD automatic gamma counter (Berthold, Hannover). […] Statistical analysis was performed with ANOVA, and significant differences between groups were determined by post hoc comparison using the Dunn test.
Membrane homogenates of human embryonic kidney (HEK) 293 cells stably transfected with cDNA coding for rat CRF receptor, type 1 (rCRFR1) or mouse CRF receptor, type 2β (mCRFR2β) were prepared according to standard protocols (see, e.g., Sambrook et al., Molecular Cloning: A Laboratory Manual, 2nd. Edition, Cold Spring Habor Laboratory Press, Cold Spring Habor, N.Y., 1989; Ausubel et al., Current Protocols in Molecular Biology, Green Publishing Associates and Wiley Interscience, NY, 1989).

The target in the next test is T2, rCRFR1 (Rattus norvegicus, UniProt P35353).
T2 construct: expressed in transfected cells; host or cells: HEK 293 cells, stably transfected (HEK-rCRFR1)
T2 sequence (P35353 24-415): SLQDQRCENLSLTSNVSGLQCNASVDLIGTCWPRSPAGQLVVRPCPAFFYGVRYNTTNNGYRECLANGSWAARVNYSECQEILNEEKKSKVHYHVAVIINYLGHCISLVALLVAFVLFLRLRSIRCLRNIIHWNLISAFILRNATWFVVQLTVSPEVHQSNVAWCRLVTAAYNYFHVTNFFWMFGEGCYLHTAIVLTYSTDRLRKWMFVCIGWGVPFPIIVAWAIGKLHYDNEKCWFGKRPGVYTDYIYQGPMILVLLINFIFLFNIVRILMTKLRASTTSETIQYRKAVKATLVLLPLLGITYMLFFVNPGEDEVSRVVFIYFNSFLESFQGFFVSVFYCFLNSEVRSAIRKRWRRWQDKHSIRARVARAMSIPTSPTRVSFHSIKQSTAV
The experiment in a line: cAMP stimulation / inhibition of oCRF-stimulated cAMP production in HEK-rCRFR1 cells. In kind it is cell-based. Particulars: for rCRFR1 relative in vitro potency: Table 2, oCRF alone = 1.00 (lower = stronger inhibition). On the procedure:
(§1) HEK-rCRFR1 cells or HEK-mCRFR2β cells were incubated with different CRF agonists in the presence or absence of 1 μM or 10 nM antagonist, or CRF antagonist (c=1 μM) alone. After removal of the medium, cells were lyzed with aqueous 6% trichloroacetic acid (5 min, 100° C.) (Rühmann, A., A. K. E. Köpke, F. M. Dautzenberg, and J. Spiess, Proc. Natl. Acad. Sci. USA 93: 10609-10613, 1996). The cell lysates were stored at −70° C. until assayed with a RIA kit (Amersham, Little Chalfont). […] Statistical significance was determined across groups with ANOVA, and significant differences between groups were determined by post hoc comparison using the Dunn test.
(§2) Intrinsic activities were measured at peptide concentrations generating maximal formation of cAMP in HEK-rCRFR1 or HEK-mCRFR2β cells.
Background: Cyclic AMP is a second messenger, typically raised through Gs and lowered through Gi signalling.

In test [2] the target is T1, mCRFR2β. The experiment in a line: cAMP stimulation / inhibition of Svg-stimulated cAMP production in HEK-mCRFR2β cells. The conditions noted are these: for mCRFR2β relative in vitro potency: Table 2, Svg alone = 1.00 (lower = stronger inhibition); for mCRFR2β relative in vitro potency / HEK-mCRFR2β cells rel. pot. (relative potency): 10 nM antagonist, cAMP production stimulated by 1 nM Svg; for HEK-mCRFR2β cells rel. pot. (relative potency): Table 4, Svg alone = 1.00. It counts as cell-based. More on the design: Emax: dose or concentration left out as unconfirmed. On the procedure: as §1, §2
Target sequence in this assay (Q60748 1-431 isoform Q60748-2): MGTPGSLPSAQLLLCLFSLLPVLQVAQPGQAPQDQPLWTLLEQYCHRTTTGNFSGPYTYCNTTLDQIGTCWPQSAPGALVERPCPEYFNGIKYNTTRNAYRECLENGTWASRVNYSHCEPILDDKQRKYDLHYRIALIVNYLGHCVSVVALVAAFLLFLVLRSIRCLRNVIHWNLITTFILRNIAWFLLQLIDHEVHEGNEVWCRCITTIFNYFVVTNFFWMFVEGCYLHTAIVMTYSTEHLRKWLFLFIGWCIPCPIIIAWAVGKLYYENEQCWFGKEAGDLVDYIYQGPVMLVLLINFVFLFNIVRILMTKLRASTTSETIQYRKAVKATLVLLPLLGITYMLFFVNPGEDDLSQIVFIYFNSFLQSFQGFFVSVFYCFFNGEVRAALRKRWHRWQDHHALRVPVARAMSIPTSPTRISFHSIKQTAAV

The mark [3] stands for this setting: 1 μM antagonist, cAMP production stimulated by 1 nM oCRF.
[4] abbreviates: read-out: HEK-mCRFR2β cells rel. IA (relative intrinsic activity).

“α-helical CRF(9-41) [compound 4, reference compound]” yielded a Selectivity on mCRFR2β [1] (Table 1) of 6.61. Also, at rCRFR1 (setting [3]), the “rCRFR1 relative in vitro potency” value came to 0.58 ± 0.05. For the same molecule, at mCRFR2β [2], the “mCRFR2β relative in vitro potency” value is on record as 0.67 ± 0.02.
On to `CC[C@H](C)[C@H](NC(=O)[C@@H](NC(=O)[C@H](CC(=O)O)NC(=O)[C@H](CC(C)C)NC(=O)[C@H](CC(C)C)NC(=O)[C@H](CC(C)C)NC(=O)[C@H](CCCNC(=N)N)NC(=O)[C@H](CC(N)=O)NC(=O)[C@H](CC(N)=O)NC(=O)[C@H](C)NC(=O)[C@H](C)NC(=O)[C@H](CCC(N)=O)NC(=O)[C@H](CCC(N)=O)NC(=O)[C@H](CCCCN)NC(=O)[C@H](CCC(=O)O)NC(=O)[C@H](CCCCN)NC(=O)[C@H](CCC(=O)O)NC(=O)[C@H](CCC(N)=O)NC(=O)[C@H](CCCCN)NC(=O)[C@H](CCC(=O)O)NC(=O)[C@@H](NC(=O)[C@H](CCC(=O)O)NC(=O)[C@@H](NC(=O)[C@H](CCSC)NC(=O)[C@H](CCCCN)NC(=O)[C@H](CCCNC(=N)N)NC(=O)[C@H](CC(C)C)NC(=O)[C@H](CC(C)C)NC(=O)[C@H](CCC(=O)O)NC(=O)[C@@H](N)Cc1ccc(O)cc1)[C@@H](C)CC)[C@@H](C)CC)[C@@H](C)O)C(N)=O` [compound 19, [Tyr^11]Svg(11-40)], for which, on mCRFR2β [1], the affinity, expressed as Kd, was 20.8 ± 1.6 nM. The Selectivity on mCRFR2β [1] (Table 3) stood at 32.97. Moreover, the “HEK-rCRFR1 cells rel. pot. (relative potency)” value on rCRFR1 (Table 4, 1 μM antagonist, cAMP production stimulated by 1 nM oCRF, oCRF alone = 1.00) came out at 0.82 ± 0.06. The Emax at rCRFR1 (read-out: HEK-rCRFR1 cells rel. IA (relative intrinsic activity)) was 9 ± 1%; on mCRFR2β [2] (setting [4]), 0.7 ± 0.2%. The “HEK-mCRFR2β cells rel. pot. (relative potency)” value on mCRFR2β [2] stood at 0.67 ± 0.04.
On mCRFR2β [1] (Table 1), [DPhe^12]oCRF(12-41) [compound 6] displayed a Selectivity of 1.32. The “rCRFR1 relative in vitro potency” value at rCRFR1 (setting [3]) was 0.89 ± 0.07. In addition, on mCRFR2β [2], the “mCRFR2β relative in vitro potency” value is reported as 0.92 ± 0.07^k.
Turning to `CC[C@H](C)[C@H](NC(=O)[C@@H](NC(=O)[C@H](CC(=O)O)NC(=O)[C@H](CC(C)C)NC(=O)[C@H](CC(C)C)NC(=O)[C@H](CC(C)C)NC(=O)[C@H](CCCNC(=N)N)NC(=O)[C@H](CC(N)=O)NC(=O)[C@H](CC(N)=O)NC(=O)[C@H](C)NC(=O)[C@H](C)NC(=O)[C@H](CCC(N)=O)NC(=O)[C@H](CCC(N)=O)NC(=O)[C@H](CCCCN)NC(=O)[C@H](CCC(=O)O)NC(=O)[C@H](CCCCN)NC(=O)[C@H](CCC(=O)O)NC(=O)[C@H](CCC(N)=O)NC(=O)[C@H](CCCCN)NC(=O)[C@H](CCC(=O)O)NC(=O)[C@@H](NC(=O)[C@H](CCC(=O)O)NC(=O)[C@@H](NC(=O)[C@H](CCSC)NC(=O)[C@H](CCCCN)NC(=O)[C@H](CCCNC(=N)N)NC(=O)[C@H](CC(C)C)NC(=O)[C@H](CC(C)C)NC(=O)[C@H](CCC(=O)O)NC(=O)[C@H](CC(C)C)NC(=O)[C@H](CO)NC(=O)[C@H](CC(C)C)NC(=O)[C@H](CC(=O)O)NC(=O)[C@@H](NC(=O)[C@H](CO)NC(=O)[C@@H](NC(=O)[C@@H]1CCCN1C(=O)[C@@H]1CCCN1C(=O)CNC(=O)[C@@H]1CCC(=O)N1)[C@@H](C)CC)[C@@H](C)CC)[C@@H](C)CC)[C@@H](C)CC)[C@@H](C)O)C(N)=O` [compound 2, Svg, reference compound], the Selectivity on mCRFR2β [1] (Table 1) and at mCRFR2β [1] (Table 3) was 0.109 throughout. The “mCRFR2β relative in vitro potency” value at mCRFR2β [2] was 1.00. On mCRFR2β [2], the “HEK-mCRFR2β cells rel. pot. (relative potency)” value was 1.00. In addition, the Emax at mCRFR2β [2] (setting [4]) and at mCRFR2β [2] (read-out: mCRFR2β % IA (intrinsic activity)) was 100% in each case.
